A short description of data set [1]: Permeability of the compound at pH 7.4 by PAMPA. Conditions: read-out: permeability. Format: ADME. A general note: In PAMPA a lipid-coated filter parts donor from acceptor wells.
Data set [2] addresses T1, Neuronal acetylcholine receptor subunit alpha-7 (Rattus norvegicus, UniProt Q05941). The experiment in a line: Agonist activity at rat alpha7 nAChR expressed in HEK293 cells assessed as calcium ion influx by FRET assay. It is filed as cell-based.
A short description of data set [3]: Selectivity ratio of IC50 for 5HT3 receptor (unknown origin) to EC50 for rat alpha7 nAChR.
A short description of data set [4]: Selectivity ratio of EC50 for alpha3beta4 nAChR (unknown origin) to EC50 for rat alpha7 nAChR.
Data set [5] can be described thus: Selectivity ratio of EC50 for alpha4beta2 nAChR (unknown origin) to EC50 for rat alpha7 nAChR.
Data set [6] can be described thus: Selectivity ratio of EC50 for alpha1beta1deltaepsilon nAChR (unknown origin) to EC50 for rat alpha7 nAChR.
Data set [7] addresses Neuronal acetylcholine receptor subunit alpha-7 (Rattus norvegicus) (UniProt Q05941). The experiment in a line: Agonist activity at rat alpha7 nAChR expressed in HEK293 cells assessed as area under the curve of acetylcholine-induced response by whole-cell patch clamp electrophysiology paradigm assay relative to control. It is filed as cell-based. (In general: In patch-clamp work, channel activity is measured electrically.)

Data set [8] shares this target. The experiment in a line: Agonist activity at rat alpha7 nAChR expressed in HEK293 cells assessed as peak intensity of acetylcholine-induced response by whole-cell patch clamp electrophysiology paradigm assay relative to control. Format: cell-based.
Data set [9] in a line: Ratio of drug level in brain to plasma in ip dosed rat after 30 mins. It is filed as ADME, organism-based. The settings on record: read-out: BPR.
Data set [10] in a line: Efflux ratio of the compound in human Caco2 cells. Format: ADME, cell-based. Conditions: Caco-2.
A short description of data set [11]: Dissociation constant, pKa of the compound. It is filed as physicochemical.
Data set [12] deals with T1, Neuronal acetylcholine receptor subunit alpha-7. The experiment in a line: Agonist activity at rat alpha7 nAChR expressed in HEK293 cells assessed as area under the curve of acetylcholine-induced response by whole-cell patch clamp electrophysiology paradigm assay. Format: cell-based.
Data set [13] can be described thus: Ratio of drug level in brain to plasma in sc dosed rat after 30 mins. It is filed as ADME, organism-based. The settings on record: read-out: BPR.
Data set [14] concerns the target Neuronal acetylcholine receptor; alpha4/beta2 (Homo sapiens, UniProt P17787+P43681). The experiment in a line: Agonist activity at alpha4beta2 nAChR (unknown origin). Format: protein-complex assay.
For data set [15], the target named is Neuronal acetylcholine receptor; alpha3/beta4 (Homo sapiens, UniProt P30926+P32297). Kind of data set: Agonist activity at alpha3beta4 nAChR (unknown origin). Format: protein-complex assay.
Sequence of Neuronal acetylcholine receptor; alpha3/beta4 (P30926 whole entry): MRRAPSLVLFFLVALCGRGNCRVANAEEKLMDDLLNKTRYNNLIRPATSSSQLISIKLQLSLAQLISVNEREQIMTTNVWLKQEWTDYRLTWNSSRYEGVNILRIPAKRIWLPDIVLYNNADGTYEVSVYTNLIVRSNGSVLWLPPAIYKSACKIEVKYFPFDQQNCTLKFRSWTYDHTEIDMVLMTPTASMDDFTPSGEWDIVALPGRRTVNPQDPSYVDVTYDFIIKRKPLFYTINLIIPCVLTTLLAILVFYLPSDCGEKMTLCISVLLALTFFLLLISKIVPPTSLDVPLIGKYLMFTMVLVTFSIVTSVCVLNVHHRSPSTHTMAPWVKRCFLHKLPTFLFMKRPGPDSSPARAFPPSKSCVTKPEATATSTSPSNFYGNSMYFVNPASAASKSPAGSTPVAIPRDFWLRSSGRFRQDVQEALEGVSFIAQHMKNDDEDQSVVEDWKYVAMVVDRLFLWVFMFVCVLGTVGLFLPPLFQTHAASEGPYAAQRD
Sequence of Neuronal acetylcholine receptor; alpha3/beta4 (P32297 whole entry): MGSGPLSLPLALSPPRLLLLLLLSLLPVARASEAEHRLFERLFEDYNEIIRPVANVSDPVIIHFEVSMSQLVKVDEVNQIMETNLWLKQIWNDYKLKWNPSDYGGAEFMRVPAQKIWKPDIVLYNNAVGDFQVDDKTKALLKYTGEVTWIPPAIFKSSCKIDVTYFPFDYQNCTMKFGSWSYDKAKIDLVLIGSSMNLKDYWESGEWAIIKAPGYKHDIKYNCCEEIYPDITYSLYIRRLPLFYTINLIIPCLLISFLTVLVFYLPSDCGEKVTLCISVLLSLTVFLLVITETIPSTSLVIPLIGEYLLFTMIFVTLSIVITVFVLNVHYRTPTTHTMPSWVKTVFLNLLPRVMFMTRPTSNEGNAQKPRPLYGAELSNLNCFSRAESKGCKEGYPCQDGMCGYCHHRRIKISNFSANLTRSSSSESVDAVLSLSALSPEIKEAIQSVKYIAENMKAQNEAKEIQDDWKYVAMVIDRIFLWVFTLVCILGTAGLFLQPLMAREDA
The target in data set [16] is T2, 5-hydroxytryptamine receptor 3A (Homo sapiens, UniProt P46098).
T2 sequence (P46098 whole entry): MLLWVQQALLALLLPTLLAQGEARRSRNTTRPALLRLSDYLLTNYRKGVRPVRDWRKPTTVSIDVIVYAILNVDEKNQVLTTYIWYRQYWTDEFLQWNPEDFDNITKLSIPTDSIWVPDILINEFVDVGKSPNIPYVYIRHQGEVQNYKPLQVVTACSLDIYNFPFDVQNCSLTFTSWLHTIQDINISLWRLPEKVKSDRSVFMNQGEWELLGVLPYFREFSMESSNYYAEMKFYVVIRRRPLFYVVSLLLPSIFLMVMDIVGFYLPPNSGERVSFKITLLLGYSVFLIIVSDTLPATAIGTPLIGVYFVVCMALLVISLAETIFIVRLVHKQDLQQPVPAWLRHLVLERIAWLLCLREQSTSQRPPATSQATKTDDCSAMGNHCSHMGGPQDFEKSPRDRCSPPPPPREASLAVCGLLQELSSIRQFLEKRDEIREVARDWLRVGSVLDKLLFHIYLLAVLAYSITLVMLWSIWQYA
Kind of data set: Inhibition of 5HT3 receptor (unknown origin).

In data set [17] the target is Acetylcholine receptor; alpha1/beta1/delta/gamma (Homo sapiens, UniProt P02708+P07510+P11230+Q07001). The experiment in a line: Agonist activity at alpha1beta1deltaepsilon nAChR (unknown origin). It is filed as protein-complex assay.
Sequence of Acetylcholine receptor; alpha1/beta1/delta/gamma (P02708 whole entry): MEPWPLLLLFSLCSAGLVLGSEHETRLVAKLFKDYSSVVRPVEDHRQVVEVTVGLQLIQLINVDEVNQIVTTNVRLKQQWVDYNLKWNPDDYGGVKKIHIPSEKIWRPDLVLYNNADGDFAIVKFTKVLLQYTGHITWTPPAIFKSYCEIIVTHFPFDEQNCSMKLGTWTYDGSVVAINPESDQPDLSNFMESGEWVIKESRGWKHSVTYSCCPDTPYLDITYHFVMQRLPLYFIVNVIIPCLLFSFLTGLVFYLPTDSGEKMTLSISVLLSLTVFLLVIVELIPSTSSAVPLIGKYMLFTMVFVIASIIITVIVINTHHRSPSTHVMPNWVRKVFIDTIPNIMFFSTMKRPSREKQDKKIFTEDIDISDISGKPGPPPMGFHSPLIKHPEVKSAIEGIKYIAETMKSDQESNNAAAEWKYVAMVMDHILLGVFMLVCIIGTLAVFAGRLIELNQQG
Sequence of Acetylcholine receptor; alpha1/beta1/delta/gamma (P07510 whole entry): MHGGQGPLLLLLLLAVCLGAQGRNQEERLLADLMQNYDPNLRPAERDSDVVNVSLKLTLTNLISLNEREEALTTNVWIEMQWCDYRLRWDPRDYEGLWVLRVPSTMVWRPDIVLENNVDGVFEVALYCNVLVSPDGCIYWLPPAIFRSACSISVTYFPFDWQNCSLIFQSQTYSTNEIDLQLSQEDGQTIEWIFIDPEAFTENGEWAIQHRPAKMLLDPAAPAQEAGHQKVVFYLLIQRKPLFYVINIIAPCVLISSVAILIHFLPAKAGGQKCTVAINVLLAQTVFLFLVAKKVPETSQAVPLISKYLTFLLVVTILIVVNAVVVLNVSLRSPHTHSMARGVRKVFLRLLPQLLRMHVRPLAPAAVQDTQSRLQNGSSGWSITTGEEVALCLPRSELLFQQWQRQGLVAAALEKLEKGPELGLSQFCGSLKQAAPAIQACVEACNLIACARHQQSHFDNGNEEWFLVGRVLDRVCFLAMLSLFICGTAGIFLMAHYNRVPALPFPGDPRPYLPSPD
Sequence of Acetylcholine receptor; alpha1/beta1/delta/gamma (P11230 whole entry): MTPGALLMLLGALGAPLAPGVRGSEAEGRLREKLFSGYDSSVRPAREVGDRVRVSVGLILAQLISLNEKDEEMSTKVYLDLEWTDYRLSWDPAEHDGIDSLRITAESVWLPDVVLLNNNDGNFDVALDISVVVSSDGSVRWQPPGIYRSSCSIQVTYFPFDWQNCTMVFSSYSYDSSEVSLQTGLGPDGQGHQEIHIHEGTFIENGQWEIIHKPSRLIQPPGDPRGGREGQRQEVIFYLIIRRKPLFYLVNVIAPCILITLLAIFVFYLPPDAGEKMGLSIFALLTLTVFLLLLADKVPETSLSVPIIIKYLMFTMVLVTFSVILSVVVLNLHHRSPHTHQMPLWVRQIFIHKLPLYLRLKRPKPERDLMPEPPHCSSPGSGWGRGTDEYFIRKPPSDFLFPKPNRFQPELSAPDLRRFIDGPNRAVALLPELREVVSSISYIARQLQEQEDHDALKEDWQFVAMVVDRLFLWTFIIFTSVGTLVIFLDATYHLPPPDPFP
Sequence of Acetylcholine receptor; alpha1/beta1/delta/gamma (Q07001 whole entry): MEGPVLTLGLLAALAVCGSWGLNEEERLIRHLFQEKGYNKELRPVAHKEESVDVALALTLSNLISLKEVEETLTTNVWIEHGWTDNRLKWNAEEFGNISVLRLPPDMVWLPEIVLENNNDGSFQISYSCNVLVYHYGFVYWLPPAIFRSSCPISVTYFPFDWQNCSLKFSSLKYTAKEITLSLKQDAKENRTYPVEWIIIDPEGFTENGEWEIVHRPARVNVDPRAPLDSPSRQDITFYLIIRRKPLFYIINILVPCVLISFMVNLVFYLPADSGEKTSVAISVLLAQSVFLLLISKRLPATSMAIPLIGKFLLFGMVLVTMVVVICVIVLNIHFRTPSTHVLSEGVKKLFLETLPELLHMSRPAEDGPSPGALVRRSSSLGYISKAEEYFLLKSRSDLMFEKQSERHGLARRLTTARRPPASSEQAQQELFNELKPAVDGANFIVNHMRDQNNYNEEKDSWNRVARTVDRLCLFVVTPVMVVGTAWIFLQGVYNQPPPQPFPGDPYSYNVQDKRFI

Sequence of Neuronal acetylcholine receptor subunit alpha-7 (Rattus norvegicus) (Q05941 whole entry): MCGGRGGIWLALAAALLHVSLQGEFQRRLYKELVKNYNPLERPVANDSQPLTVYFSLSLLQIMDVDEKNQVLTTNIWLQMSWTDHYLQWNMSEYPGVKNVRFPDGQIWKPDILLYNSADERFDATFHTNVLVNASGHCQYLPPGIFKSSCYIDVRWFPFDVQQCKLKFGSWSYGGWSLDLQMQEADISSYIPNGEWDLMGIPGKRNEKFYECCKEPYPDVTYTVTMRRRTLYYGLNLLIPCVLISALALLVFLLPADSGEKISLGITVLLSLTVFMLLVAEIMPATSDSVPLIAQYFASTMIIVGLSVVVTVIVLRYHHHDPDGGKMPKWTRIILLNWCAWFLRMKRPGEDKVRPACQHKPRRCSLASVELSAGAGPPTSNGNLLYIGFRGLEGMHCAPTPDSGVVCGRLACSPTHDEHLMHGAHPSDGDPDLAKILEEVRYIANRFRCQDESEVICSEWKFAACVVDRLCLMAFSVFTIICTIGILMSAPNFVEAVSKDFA
T1 sequence (Q05941 whole entry): as above
Sequence of Neuronal acetylcholine receptor; alpha4/beta2 (P17787 whole entry): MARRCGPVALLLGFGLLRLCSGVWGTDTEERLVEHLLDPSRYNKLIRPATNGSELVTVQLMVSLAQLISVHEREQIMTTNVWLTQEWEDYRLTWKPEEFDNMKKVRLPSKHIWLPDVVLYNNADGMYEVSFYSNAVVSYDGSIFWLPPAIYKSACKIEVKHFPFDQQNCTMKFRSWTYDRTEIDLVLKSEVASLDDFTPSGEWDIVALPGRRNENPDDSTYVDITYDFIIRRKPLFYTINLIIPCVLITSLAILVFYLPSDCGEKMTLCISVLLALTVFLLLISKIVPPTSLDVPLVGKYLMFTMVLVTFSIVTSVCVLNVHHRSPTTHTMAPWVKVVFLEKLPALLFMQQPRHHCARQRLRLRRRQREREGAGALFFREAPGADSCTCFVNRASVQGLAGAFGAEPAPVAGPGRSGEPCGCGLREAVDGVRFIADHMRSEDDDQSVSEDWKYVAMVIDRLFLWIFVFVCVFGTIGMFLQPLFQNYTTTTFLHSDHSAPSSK
Sequence of Neuronal acetylcholine receptor; alpha4/beta2 (P43681 whole entry): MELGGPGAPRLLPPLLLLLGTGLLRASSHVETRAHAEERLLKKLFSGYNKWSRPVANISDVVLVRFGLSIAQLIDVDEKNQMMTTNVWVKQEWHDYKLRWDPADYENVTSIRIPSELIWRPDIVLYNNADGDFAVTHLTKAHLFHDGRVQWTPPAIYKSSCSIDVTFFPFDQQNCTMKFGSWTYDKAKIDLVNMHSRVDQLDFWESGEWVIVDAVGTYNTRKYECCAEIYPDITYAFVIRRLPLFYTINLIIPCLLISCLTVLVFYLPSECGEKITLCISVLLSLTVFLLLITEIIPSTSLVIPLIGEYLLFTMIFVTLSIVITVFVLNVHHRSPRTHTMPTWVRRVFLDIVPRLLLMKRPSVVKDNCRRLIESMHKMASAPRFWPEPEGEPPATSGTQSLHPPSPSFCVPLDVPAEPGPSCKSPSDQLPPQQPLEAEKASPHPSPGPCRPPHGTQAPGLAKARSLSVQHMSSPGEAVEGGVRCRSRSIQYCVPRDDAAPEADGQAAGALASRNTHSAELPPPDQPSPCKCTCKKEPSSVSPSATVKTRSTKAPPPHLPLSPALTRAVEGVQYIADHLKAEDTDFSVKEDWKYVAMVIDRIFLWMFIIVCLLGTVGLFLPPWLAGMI

As for `CC(=O)NCc1cccc(-c2cc(=O)n(CC3CN4CCC3CC4)c3ccccc23)c1` (racemic), the Papp in [1] was 0.1 ×10⁻⁶ cm/s. The EC50 in data set [2] worked out at 32 nM. Besides, in data set [3], the Ratio IC50/EC50 amounted to 50. Also, the Ratio EC50 in [4], in [5] and in [6] was 100 in each case. For the same compound, the maximal response (Emax) in [7] was 84%; in data set [8] it was 21%.
Consider `O=c1cc(-c2ccccc2)c2ccccc2n1CC1CN2CCC1CC2` (centres undefined), for which the Kp at 0.5 h in [9] was 0.02. Moreover, the efflux ratio in data set [10] was determined as 6.9. Also, in [1], the Papp came out at 90 ×10⁻⁶ cm/s. The pKa in data set [11] worked out at 10.1. Also, the EC50 in data set [2] amounted to 150 nM; in [12], 760 nM. Also, the Emax in data set [7] is 110%; in [8], 60%.
On to `COc1cccc(-c2cc(=O)n(CC3CCCNC3)c3ccccc23)c1` (racemic), for which the EC50 in [2] was 1300 nM.
As for `O=c1cc(-c2ccccc2)c2ccccc2n1CC1CNCCO1` (centres undefined), the efflux ratio in data set [10] came out at 1. The Kp at 0.5 h in data set [13] came to 0.9. In addition, the Papp in [1] is 55 ×10⁻⁶ cm/s. Also, the pKa in data set [11] amounted to 8.1. Moreover, the EC50 in data set [2] was 260 nM; in data set [12], 1200 nM. Also, the Emax in data set [7] was found to be 41%; in [8], 34%.
`CNCCCn1c(=O)c(C#N)c(-c2ccccc2)c2ccccc21`: the EC50 in data set [2] stood at 900 nM.
On the same count and under the same terms, the result for `CN(C)CCCn1ccc(-c2ccccc2)c(C#N)c1=O` reads > 10000 nM; that for `Cc1ccccc1-c1cc(=O)n(CC2CCCNC2)c2ccccc12` (racemic), 1500 nM; that for `CN(C)CCCn1c(=O)c(C#N)cc2ccccc21`, > 10000 nM.
The same measure, in the same setting: the same measure for `N#Cc1c(-c2ccccc2)c2ccccc2n(CC2CCCNC2)c1=O` (racemic): 460 nM; for `O=c1cc(-c2cccc3[nH]ccc23)c2ccccc2n1CC1CCCNC1` (racemic): 110 nM; for `N#Cc1c(-c2ccccc2)c2ccccc2n(CCCN2CCCC2)c1=O`: 9300 nM.
With `Cc1ccc(-c2cc(=O)n(CC3CCCNC3)c3ccccc23)cc1` (racemic), the EC50 in data set [2] is > 10000 nM.
As for `O=c1cc(-c2cccc3[nH]ccc23)c2ccccc2n1CC1CN2CCC1CC2` (racemic), the efflux ratio in data set [10] is > 18. The Papp in [1] stood at 40 ×10⁻⁶ cm/s. Moreover, the EC50 in data set [2] came out at 23 nM; in [12], 540 nM. Also, the Ratio IC50/EC50 in data set [3] came to 50. Also, the Ratio EC50 in [4], in [5] and in [6] was 100 throughout. The maximum response (Emax) came out at 80% in [7] and 62% in [8].
As to `CN(C)CCCn1c(=O)c(C#N)c(-c2ccccc2)c2ccccc21`, the EC50 in data set [14] is > 100 µM; in [15], > 100 µM; in data set [2], 1300 nM; in [17], > 100 µM; in data set [12], 8200 nM. In [16], it took 19 µM to reach half-maximal inhibition (IC50). Also, the results for the Emax in data set [7] and in [8] were 44% and 15%, respectively.
Consider `c1cnc2c(c1)C[C@@]1(CN3CCC1CC3)O2` [AZD0328], for which the efflux ratio in data set [10] came to 0.9. The Kp at 0.5 h in data set [13] was 1.7. Moreover, the Papp in data set [1] was 51 ×10⁻⁶ cm/s. In data set [11], this compound came in with a pKa of 8.9.
For `CC(=O)NCc1cccc(-c2cc(=O)n(CC3CCCNC3)c3ccccc23)c1` (racemic), the 50% effective concentration (EC50) in data set [2] is 100 nM.
For the compound `CC(CCn1c(=O)cc(-c2ccccc2)c2ccccc21)N(C)C` (racemic), the EC50 in data set [2] is > 10000 nM.
Consider `O=c1cc(-c2ccccc2)c2ccccc2n1CC1CN2CCC1(F)CC2` (racemic), for which, in data set [10], the efflux ratio amounted to 0.6. Besides, the Papp in data set [1] worked out at 38 ×10⁻⁶ cm/s. The compound further registered a pKa in data set [11] of 7.6.
For the compound `O=c1cc(-c2ccccc2)c2ccccc2n1CC1CCCNC1` (centres undefined), the EC50 in [2] turned out to be 210 nM; in data set [12] it was 2500 nM. In addition, the maximum response (Emax) in data set [7] came to 30%; in [8], 60%.
Turning to `CN(C)CCCn1c(=O)cc(-c2ccccc2)c2ccccc21`, the EC50 in data set [2] is 2800 nM.
Same read-out and setting: the same measure for `CS(=O)(=O)NCc1cccc(-c2cc(=O)n(CC3CCCNC3)c3ccccc23)c1` (racemic): 77 nM; for `CN(C)CCn1c(=O)cc(-c2ccccc2)c2ccccc21`: > 10000 nM.
With `CN1CCCC(Cn2c(=O)c(C#N)c(-c3ccccc3)c3ccccc32)C1` (racemic), the EC50 in [2] is > 10000 nM.
`CC(CN(C)C)Cn1c(=O)cc(-c2ccccc2)c2ccccc21` (racemic): the EC50 in data set [2] was > 10000 nM.
Consider `CS(=O)(=O)NCc1cccc(-c2cc(=O)n(CC3CN4CCC3CC4)c3ccccc23)c1` (racemic), for which the EC50 in data set [2] was determined as 14 nM; in [12], 260 nM. Moreover, the Ratio IC50/EC50 in data set [3] was found to be 50. Also, the Ratio EC50 in data set [4], in data set [5] and in data set [6] was 100 each time. Also, the values for the Emax in data set [7] and in data set [8] were 97% and 21%, respectively.
With `CCN(C)CCCn1c(=O)c(C#N)c(-c2ccccc2)c2ccccc21`, the EC50 in data set [2] was 4300 nM.
The same measure, in the same setting: the same measure for `CN(C)CCCCn1c(=O)cc(-c2ccccc2)c2ccccc21`: > 10000 nM.

By EC50 is commonly meant the concentration giving half of the maximal effect. In general, Emax refers to the size of the effect at its maximum, as opposed to the concentration needed. The term efflux ratio denotes a quotient of directional permeabilities that is used to spot active efflux. By pKa is commonly meant the pH at which an ionisable group is half protonated. The low end stands for a group that gives up its proton readily, the high end for a group that holds its proton tightly. By IC50 is commonly meant the point on the concentration scale where inhibition reaches its midpoint. A lower IC50 goes with higher potency.

The values are drawn from ChEMBL document CHEMBL2331502, “Discovery of a novel series of quinolone α7 nicotinic acetylcholine receptor agonists” (Bioorg Med Chem Lett, 2013).
